Data reported in patent publication US20110039762A1, “TARGETED ANTIMICROBIAL MOIETIES” (C3 JIAN, INC., priority 2009, published 2011).

What was measured:
E. faecalis [1] = test: Kill or inhibit growth/proliferation; morphology, biofilm and growth disruption (Tables 5, 6); type: cell-based, Enterococcus faecalis; parameters: key: A: Peptide aggregates; B: Less hyphal formation; Clumps; Diffuse clumps and small polyps; F: Diffuse growth; H: Thin; I: Growth inhibition; Microcolony formation; Rippled; Small polyps; Thick; W: Halo formation on top, microlonies on bottom; also: test concentration or dose not given here
S. epidermidis [2] = type: cell-based, Staphylococcus epidermidis; settings: S. epidermidis
Outline: (§1)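 Peptides are serially diluted 2-fold and added to Mueller-Hinton broth cultures at ˜1×10^5 cfu/mL, then incubated at 37° C. for 18-24 h.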

C. albicans [3] = test: Kill or inhibit growth/proliferation; morphology, biofilm and growth disruption (Tables 5, 6); type: cell-based, Candida albicans; parameters: key: A: Peptide aggregates; B: Less hyphal formation; Clumps; Diffuse clumps and small polyps; F: Diffuse growth; H: Thin; I: Growth inhibition; Microcolony formation; Rippled; Small polyps; Thick; W: Halo formation on top, microlonies on bottom; also: test concentration or dose not given here
B. subtilis [4] = test: MIC (broth microdilution); type: cell-based, Bacillus subtilis
Outline: as §1

MRSA [5] = test: MIC (broth microdilution); type: cell-based, Methicillin-resistant Staphylococcus aureus
Outline: as §1

S. pneumoniae = test: Kill or inhibit growth/proliferation; morphology, biofilm and growth disruption (Tables 5, 6); type: cell-based, Streptococcus pneumoniae; parameters: key: A: Peptide aggregates; B: Less hyphal formation; Clumps; Diffuse clumps and small polyps; F: Diffuse growth; H: Thin; I: Growth inhibition; Microcolony formation; Rippled; Small polyps; Thick; W: Halo formation on top, microlonies on bottom; also: test concentration or dose not given here
microorganisms = test: Peptides having multiple activities (targeting/binding, antimicrobial, growth or phenotype altering)
Excerpt: In certain embodiments, peptides described herein can have multiple activities. Thus for example, a peptide can have both binding/targeting activity and antimicrobial activity. Such peptides can be used, e.g., in a chimeric construct, for any or all of these properties. Thus, for example, a peptide designated “B” in Table 8 can be used as a targeting peptide. If it is also designated G or M it can also be used for antimicrobial activity.

C. jeikeium = test: Kill or inhibit growth/proliferation; morphology, biofilm and growth disruption (Tables 5, 6); type: cell-based, Corynebacterium jeikeium; parameters: key: A: Peptide aggregates; B: Less hyphal formation; Clumps; Diffuse clumps and small polyps; F: Diffuse growth; H: Thin; I: Growth inhibition; Microcolony formation; Rippled; Small polyps; Thick; W: Halo formation on top, microlonies on bottom; also: test concentration or dose not given here
MRSA [6] = test: as above; type: cell-based, Methicillin-resistant Staphylococcus aureus; parameters: key: A: Peptide aggregates; B: Less hyphal formation; Clumps; Diffuse clumps and small polyps; F: Diffuse growth; H: Thin; I: Growth inhibition; Microcolony formation; Rippled; Small polyps; Thick; W: Halo formation on top, microlonies on bottom
S. epidermidis [7] = test: as above; type: cell-based, Staphylococcus epidermidis; parameters: key: A: Peptide aggregates; B: Less hyphal formation; Clumps; Diffuse clumps and small polyps; F: Diffuse growth; H: Thin; I: Growth inhibition; Microcolony formation; Rippled; Small polyps; Thick; W: Halo formation on top, microlonies on bottom
A. niger = test: MIC (broth microdilution); type: cell-based, Aspergillus niger
Outline: (§2)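 2-fold dilution series of peptides in 96-well plates, inoculated at about 1×10^5 cfu/mL in MH broth, following NCCLS standards. Plates held 18–24 h at 37 °C; each run repeated 10 times.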

E. faecalis [8] = test: MIC (broth microdilution); type: cell-based, Enterococcus faecalis
Procedure: (§3) Typically, the in vitro antimicrobial activity of antimicrobial agents is tested using standard NCCLS bacterial inhibition assays, or MIC tests (see, National Committee on Clinical Laboratory Standards “Performance Standards for Antimicrobial Susceptibility Testing,” NCCLS Document M100-S5 Vol. 14, No. 16, December 1994; “Methods for dilution antimicrobial susceptibility test for bacteria that grow aerobically-Third Edition,” Approved Standard M7-A3, National Committee for Clinical Standards, Villanova, Pa.).
(§4) Briefly, ˜1×10^5 cfu/mL bacteria were diluted in TH (S. mutans), or Mueller-Hinton (MH) broth (all other organisms) and distributed to 96-well plates. Serially-diluted (2-fold) peptides were then added and the plates incubated at 37° C. for 18-24 h. […] All experiments were conducted 10 times.

C. albicans [9] = test: MIC (broth microdilution); type: cell-based, Candida albicans
Procedure: as §3, §4

T. rubrum = test: MIC (broth microdilution); type: cell-based, Trichophyton rubrum
Outline: as §2

B. subtilis [10] = test: Kill or inhibit growth/proliferation; morphology, biofilm and growth disruption (Tables 5, 6); type: cell-based, Bacillus subtilis; parameters: key: A: Peptide aggregates; B: Less hyphal formation; Clumps; Diffuse clumps and small polyps; F: Diffuse growth; H: Thin; I: Growth inhibition; Microcolony formation; Rippled; Small polyps; Thick; W: Halo formation on top, microlonies on bottom; also: test concentration or dose not given here
For Organism, effect (morphology, biofilm and growth disruption) in this document: test concentration or dose not given here.

MRFGSLALVAYDSAIKHSWPRPSSVRRLRM [PF-672] was tested, and the “Organism, effect (morphology, biofilm and growth disruption)” value (E. faecalis [1]) was “E. faecalis (I)”, the MIC (S. epidermidis [2]) was “S. epidermidis, 0.39 μM” and the “Organism, effect (morphology, biofilm and growth disruption)” value (C. albicans [3]) was “C. albicans (I)”. For the same sequence, the MIC (B. subtilis [4]) was “B. subtilis, 0.78 μM”, the MIC (MRSA [5]) was “MRSA , 1.56 μM” and the “Organism, effect (morphology, biofilm and growth disruption)” value (S. pneumoniae) was “S. pneumoniae (I)”. The Activities (microorganisms) was “G B M”, the “Organism, effect (morphology, biofilm and growth disruption)” value (C. jeikeium) was “C. jeikeium (R)” and the “Organism, effect (morphology, biofilm and growth disruption)” value (MRSA [6]) was “MRSA (I)”. The “Organism, effect (morphology, biofilm and growth disruption)” value (S. epidermidis [7]) was “S. epidermidis (I)”, the MIC (A. niger) was “A. niger, 3 μM” and the MIC (E. faecalis [8]) was “E. faecalis, 3.13 μM”. The MIC (C. albicans [9]) was “C. albicans, 1.56 μM”, the MIC (T. rubrum) was “T. rubrum, 0.78 μM” and the “Organism, effect (morphology, biofilm and growth disruption)” value (B. subtilis [10]) was “B. subtilis (I)”.
